These results are taken from ChEMBL document CHEMBL3301458, “MMV Malaria Box hERG screening”.

Data set [1] concerns the target T1, hERG (Kv11.1, KCNH2) (Homo sapiens, UniProt Q12809). Kind of data set: in vitro.
Description: MMV: Malaria Box compounds were tested for inhibition of the human ether a go-go related gene (hERG), Kv11.1 channel, using IonWorks 384-well patch clamp electrophysiology at 1.1uM (3 independent assay plates up to 12 cells per concentration).
Data set [2] concerns the target T1, hERG (Kv11.1, KCNH2). Kind of data set: in vitro. The source holds these as a separate data set.
Description: MMV: Malaria Box compounds were tested for inhibition of the human ether a go-go related gene (hERG), Kv11.1 channel, using IonWorks 384-well patch clamp electrophysiology at 11.1uM (3 independent assay plates up to 12 cells per concentration).

The source made the active and inactive calls. No rule for the calls is given here.

T1 sequence (Q12809 whole entry): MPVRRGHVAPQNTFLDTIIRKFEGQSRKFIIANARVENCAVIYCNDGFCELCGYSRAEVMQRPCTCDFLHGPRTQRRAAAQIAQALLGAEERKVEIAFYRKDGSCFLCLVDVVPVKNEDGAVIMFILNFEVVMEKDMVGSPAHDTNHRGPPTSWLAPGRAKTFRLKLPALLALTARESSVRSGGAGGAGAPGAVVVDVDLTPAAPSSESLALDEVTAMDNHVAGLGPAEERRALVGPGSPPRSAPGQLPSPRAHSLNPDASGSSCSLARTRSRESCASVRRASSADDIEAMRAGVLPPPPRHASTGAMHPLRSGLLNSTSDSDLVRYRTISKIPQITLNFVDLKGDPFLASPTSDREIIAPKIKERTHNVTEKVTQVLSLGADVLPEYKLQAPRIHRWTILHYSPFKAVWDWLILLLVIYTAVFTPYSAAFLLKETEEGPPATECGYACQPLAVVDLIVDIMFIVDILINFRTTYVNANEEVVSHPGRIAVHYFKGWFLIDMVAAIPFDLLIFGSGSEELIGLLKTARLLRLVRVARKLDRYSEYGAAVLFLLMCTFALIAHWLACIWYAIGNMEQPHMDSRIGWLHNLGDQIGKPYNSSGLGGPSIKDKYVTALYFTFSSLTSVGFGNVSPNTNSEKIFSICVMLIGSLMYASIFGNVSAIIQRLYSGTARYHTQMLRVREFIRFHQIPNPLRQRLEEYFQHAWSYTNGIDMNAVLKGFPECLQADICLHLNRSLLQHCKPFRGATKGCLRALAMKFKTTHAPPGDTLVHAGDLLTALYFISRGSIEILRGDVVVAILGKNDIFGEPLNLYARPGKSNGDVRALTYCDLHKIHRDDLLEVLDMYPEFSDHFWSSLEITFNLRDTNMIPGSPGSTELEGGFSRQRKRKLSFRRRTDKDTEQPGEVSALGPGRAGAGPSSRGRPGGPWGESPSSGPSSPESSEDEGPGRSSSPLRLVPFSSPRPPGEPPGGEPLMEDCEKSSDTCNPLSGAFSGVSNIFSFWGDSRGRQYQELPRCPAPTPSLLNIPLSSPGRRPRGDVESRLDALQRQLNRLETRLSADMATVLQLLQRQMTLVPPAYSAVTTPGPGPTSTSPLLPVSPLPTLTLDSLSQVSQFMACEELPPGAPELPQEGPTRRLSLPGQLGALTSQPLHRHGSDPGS

The term inhibition denotes the relative decrease from the control value, in per cent. In the case of `CSC1=NC(=Nc2c(C)cccc2C)C2(CCC(C(C)(C)C)CC2)N1c1ccc(Cl)cc1` (stereo not given), the inhibition at 1.1 µM against hERG (Kv11.1, KCNH2) [1] was -5%. Moreover, the inhibition at 11.1 µM on hERG (Kv11.1, KCNH2) [2] was 5% (inactive).
Turning to `COc1cc(-c2nc(-c3ccc(Sc4ccccc4)cc3)c(-c3ccccc3)[nH]2)cc(OC)c1O`, at hERG (Kv11.1, KCNH2) [1], the inhibition at 1.1 µM was 15%. In addition, at hERG (Kv11.1, KCNH2) [2], the inhibition at 11.1 µM is 13% (inactive).
Consider `CCOc1ccccc1CN1CCc2nc3cc(C(C)(C)C)nn3c(O)c2C1`, for which the inhibition at 1.1 µM against hERG (Kv11.1, KCNH2) [1] is -1%. Further, the inhibition at 11.1 µM on hERG (Kv11.1, KCNH2) [2] was 58% (active).
As for `Oc1c(CN2CCN(c3ccccc3F)CC2)cc(Br)c2cccnc12`, the inhibition at 1.1 µM against hERG (Kv11.1, KCNH2) [1] was -9%. Also, the inhibition at 11.1 µM on hERG (Kv11.1, KCNH2) [2] turned out to be 46%.
`O=C(Nc1ccc(-c2nc3ccccc3[nH]2)cc1)c1ccc(Cl)c(Cl)c1`: the inhibition at 1.1 µM on hERG (Kv11.1, KCNH2) [1] worked out at 2%. Also, on hERG (Kv11.1, KCNH2) [2], the inhibition at 11.1 µM was 45%.
The like results for `COc1ccc(NC(=O)C2c3ccccc3C(=O)N(CC(C)C)C2c2cccs2)cc1Cl` (stereo not given) were, in that order, 0% and 24% (inactive).
As for `COc1cc(C(=O)Nc2nc3c(cc4c5c(cccc53)CC4)s2)cc(OC)c1OC`, the inhibition at 1.1 µM against hERG (Kv11.1, KCNH2) [1] was 10%. Moreover, the inhibition at 11.1 µM at hERG (Kv11.1, KCNH2) [2] was 23% (inactive).
In the case of `C=CCc1c(C)nc2ccccc2c1O`, the inhibition at 1.1 µM against hERG (Kv11.1, KCNH2) [1] was determined as 11%. The inhibition at 11.1 µM at hERG (Kv11.1, KCNH2) [2] is 11% (inactive).
As to `O=C(O)C1Cc2c([nH]c3ccccc23)C(c2ccc(Cl)cc2Cl)N1` (stereo not given), the inhibition at 1.1 µM on hERG (Kv11.1, KCNH2) [1] was -5%. In addition, at hERG (Kv11.1, KCNH2) [2], the inhibition at 11.1 µM is 34%.
Regarding `COc1cccc(Cn2c(Oc3ccccc3)nc3c2c(=O)n(C)c(=O)n3C)c1`, at hERG (Kv11.1, KCNH2) [1], the inhibition at 1.1 µM was -4%. Also, the inhibition at 11.1 µM against hERG (Kv11.1, KCNH2) [2] was determined as 26%.
Consider `CCOC(=O)c1cn(CC)c2cc(N3CCCCC3)c(F)cc2c1=O`, for which, on hERG (Kv11.1, KCNH2) [1], the inhibition at 1.1 µM was -4%. The inhibition at 11.1 µM on hERG (Kv11.1, KCNH2) [2] stood at 25%.
On to `COc1cccc(C=Cc2nc(=O)c3ccccc3o2)c1OC`, for which the inhibition at 1.1 µM at hERG (Kv11.1, KCNH2) [1] was -3%. In addition, the inhibition at 11.1 µM on hERG (Kv11.1, KCNH2) [2] is -4% (inactive).
For `COc1ccc2sc(N(Cc3cccnc3)C(=O)c3ccc(C#N)cc3)nc2c1`, the inhibition at 1.1 µM against hERG (Kv11.1, KCNH2) [1] was determined as 14%. At hERG (Kv11.1, KCNH2) [2], the inhibition at 11.1 µM was 82% (active).
Consider `N#Cc1nc(Cc2cccc3ccccc23)oc1N1CCN(C(c2ccccc2)c2ccccc2)CC1`, for which the inhibition at 1.1 µM against hERG (Kv11.1, KCNH2) [1] came to 15%. The inhibition at 11.1 µM at hERG (Kv11.1, KCNH2) [2] was 13% (inactive).
For `CCN(CC)CCNc1ccnc2cc(Cl)ccc12` the same measures were 18% and 61% (active).
In the case of `O=C(Nc1ccc(N2CCN(Cc3ccccc3)CC2)cc1)c1cccs1`, at hERG (Kv11.1, KCNH2) [1], the inhibition at 1.1 µM was determined as 12%. Moreover, at hERG (Kv11.1, KCNH2) [2], the inhibition at 11.1 µM was determined as 32%.
For `O=C(NC1CCCCC1)C(c1cccs1)N(CCc1ccccc1)C(=O)c1ccco1` (stereo not given) the same measures were 13% and 53% (active).
The like results for `CCn1nc(-c2ccc(C(=O)OC)cc2)nc2c(=O)n(C)c(=O)nc1-2` were, in that order, -2% and 9% (inactive).
Take `O=C1c2ccc3c4c(ccc(c24)C(=O)N1CCCCO)C(=O)N(CCCCO)C3=O`: on hERG (Kv11.1, KCNH2) [1], the inhibition at 1.1 µM stood at 3%. For the same molecule, the inhibition at 11.1 µM at hERG (Kv11.1, KCNH2) [2] was 37%.
The like results for `CCOC(=O)c1cnc2ccc(CC)cc2c1O` were, in that order, 1% and 12% (inactive).
On to `Oc1ccccc1CN1CCN(C(c2ccccc2)c2ccccc2)CC1`, for which, at hERG (Kv11.1, KCNH2) [1], the inhibition at 1.1 µM stood at 13%. Also, the inhibition at 11.1 µM on hERG (Kv11.1, KCNH2) [2] is 12% (inactive).
As to `COc1ccc2nc(C)cc(Nc3ccccc3O)c2c1`, on hERG (Kv11.1, KCNH2) [1], the inhibition at 1.1 µM was 18%. Further, on hERG (Kv11.1, KCNH2) [2], the inhibition at 11.1 µM was 57% (active).
As for `CN(C)c1ccc(C=Cc2nc(=O)c3ccccc3o2)cc1`, on hERG (Kv11.1, KCNH2) [1], the inhibition at 1.1 µM was determined as 2%. Further, at hERG (Kv11.1, KCNH2) [2], the inhibition at 11.1 µM was 0% (inactive).
Regarding `Cc1cc(NC(=O)c2cccc(C(F)(F)F)c2)n(-c2nc(-c3ccc4c(c3)OCO4)cs2)n1`, the inhibition at 1.1 µM against hERG (Kv11.1, KCNH2) [1] was determined as 12%. Besides, the inhibition at 11.1 µM on hERG (Kv11.1, KCNH2) [2] was 6% (inactive).
The like results for `CC(C)CNC(=O)c1c(N)n(CCc2ccccc2F)c2nc3ccccc3nc12` were, in that order, 17% and -11% (inactive).
For `Cc1ccc(N2C(=O)C3C(C2=O)C2(c4ccccc4)C(=O)C3(c3ccccc3)C(c3ccccc3)=C2c2ccccc2)cc1` (stereo not given) the same measures were 10% and -3% (inactive).
For `C[n+]1c2ccccc2nc2ccc(NCCO)cc21`, the inhibition at 1.1 µM against hERG (Kv11.1, KCNH2) [1] came to 8%. The inhibition at 11.1 µM on hERG (Kv11.1, KCNH2) [2] was 11% (inactive).
For the molecule `CCc1ccc(CNCC(O)c2ccccc2)cc1` (stereo not given), the inhibition at 1.1 µM at hERG (Kv11.1, KCNH2) [1] came out at 32%. Moreover, the inhibition at 11.1 µM at hERG (Kv11.1, KCNH2) [2] is 67% (active).
The like results for `CCCCN(CCCC)S(=O)(=O)c1ccc(NC(=O)c2ccco2)cc1` were, in that order, 13% and 30%.
Regarding `COc1ccccc1CNC(=O)CCn1c(=O)[nH]c2ccccc2c1=O`, the inhibition at 1.1 µM at hERG (Kv11.1, KCNH2) [1] is -6%. The inhibition at 11.1 µM on hERG (Kv11.1, KCNH2) [2] was 19% (inactive).
